What was measured:
[1] = target: T1, Prostaglandin G/H synthase 1 (Ovis aries, UniProt P05979); assay: Cyclooxygenase (COX) Inhibition Assay; details: 37 °C
T1 sequence (P05979 whole entry): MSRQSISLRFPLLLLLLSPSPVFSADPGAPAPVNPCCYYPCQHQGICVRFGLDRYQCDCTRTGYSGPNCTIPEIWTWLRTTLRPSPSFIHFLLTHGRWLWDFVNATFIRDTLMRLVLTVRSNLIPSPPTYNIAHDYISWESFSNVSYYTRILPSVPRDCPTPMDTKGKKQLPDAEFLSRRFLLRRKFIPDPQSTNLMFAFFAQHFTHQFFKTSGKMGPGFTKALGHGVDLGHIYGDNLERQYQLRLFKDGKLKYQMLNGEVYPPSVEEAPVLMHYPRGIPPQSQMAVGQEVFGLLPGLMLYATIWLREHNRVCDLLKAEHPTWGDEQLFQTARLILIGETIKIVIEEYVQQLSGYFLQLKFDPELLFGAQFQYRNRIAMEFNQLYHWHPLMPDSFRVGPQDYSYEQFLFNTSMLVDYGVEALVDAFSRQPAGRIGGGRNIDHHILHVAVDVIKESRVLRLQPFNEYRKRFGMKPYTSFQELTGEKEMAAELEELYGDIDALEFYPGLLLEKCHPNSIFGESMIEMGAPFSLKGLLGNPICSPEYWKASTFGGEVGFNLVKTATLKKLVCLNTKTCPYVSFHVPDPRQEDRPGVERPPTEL
Method: (§1) The COX-1/COX-2 inhibition assay was done using an enzyme immunoassay (EIA) kit. The reaction buffer (960 uL), containing 0.1 M Tris-HCl (pH 8.0), 5 mM EDTA and 2 mM phenol, with either COX-1 or COX-2 (10 uL) enzyme in the presence of heme (10 uL) was added 10 uL of various concentrations of test drug solutions (0.01, 0.1, 1, 10, 50, and 100 uM in a final volume of 1 mL). The reaction was incubated for 5 min at 37 uC, followed by the addition of 10 uL of AA (100 uM) solution. The reaction was stopped by the addition of 50 uL of 1M HCl after 2 min.

[2] = target: T2, Prostaglandin G/H synthase 2 (Ovis aries, UniProt P79208); assay: Cyclooxygenase (COX) Inhibition Assay; details: 37 °C
T2 sequence (P79208 whole entry): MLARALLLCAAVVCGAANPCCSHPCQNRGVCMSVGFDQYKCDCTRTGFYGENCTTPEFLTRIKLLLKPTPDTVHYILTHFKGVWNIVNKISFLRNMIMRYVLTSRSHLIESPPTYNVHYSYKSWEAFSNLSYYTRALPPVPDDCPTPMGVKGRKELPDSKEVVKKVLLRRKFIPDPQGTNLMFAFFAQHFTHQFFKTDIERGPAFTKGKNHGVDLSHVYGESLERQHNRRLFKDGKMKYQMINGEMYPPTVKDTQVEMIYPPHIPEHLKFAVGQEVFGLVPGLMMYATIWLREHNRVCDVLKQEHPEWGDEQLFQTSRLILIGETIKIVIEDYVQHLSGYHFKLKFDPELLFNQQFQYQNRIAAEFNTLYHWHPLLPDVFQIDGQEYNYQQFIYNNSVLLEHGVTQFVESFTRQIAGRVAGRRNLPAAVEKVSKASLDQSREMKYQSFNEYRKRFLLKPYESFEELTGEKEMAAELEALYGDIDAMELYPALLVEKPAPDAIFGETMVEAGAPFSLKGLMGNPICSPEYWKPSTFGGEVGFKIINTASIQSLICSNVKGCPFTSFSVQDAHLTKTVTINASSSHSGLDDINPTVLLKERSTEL
Method: as §1

| Compound | IC50 [1] [µM] | IC50 [2] [µM] |
| --- | --- | --- |
| Cc1[nH]n(-c2ccccc2)c(=O)c1CNC(N)=S [1-[(3-methyl-5-oxo-1-phenyl-4,5-dihydro-1H-pyrazol-4-yl)methyl]thiourea (5c)] | > 100 | 85 |
| Cc1[nH]n(-c2ccccc2)c(=O)c1CNC(N)=O [1-[(3-methyl-5-oxo-1-phenyl-4,5-dihydro-1H-pyrazol-4-yl)methyl]urea (5a)] | > 100 | 2.3 |
| Cc1[nH]n(-c2ccccc2)c(=O)c1CNc1ccc(S(N)(=O)=O)cc1 [4-{[(3-methyl-5-oxo-1-phenyl-4,5-dihydro-1H-pyrazol-4-yl)methyl]amino} benzene sulfonamide (5f)] | > 100 | 1 |
| Cc1cc(=O)n(-c2ccccc2)[nH]1 [MLS000069602] | > 100 | 35 |
| Cc1[nH]n(-c2ccccc2)c(=O)c1CNC(=O)NN [N-[(3-methyl-5-oxo-1-phenyl-4,5-dihydro-1H-pyrazol-4yl)methyl] hydrazine carboxamide (5g)] | > 100 | > 100 |

The next lines start with the values.

| IC50 [1] [µM] | IC50 [2] [µM] | Compound |
| --- | --- | --- |
| > 100 | > 100 | Cc1[nH]n(-c2ccccc2)c(=O)c1CNC(=O)Nc1ccc(Cl)cc1 [1-(4-chlorophenyl)-3-[(3-methyl-5-oxo-1-phenyl-4,5-dihydro-1H-pyrazol-4-yl)methyl]urea (5b)] |
| > 100 | 50.7 | Cc1[nH]n(-c2ccccc2)c(=O)c1CN=C(N)N [1-((3-methyl-5-oxo-1-phenyl-4,5-dihydro-1H-pyrazol-4-yl)methyl)guanidine (5e)] |
| 80 | 0.2 | Cc1[nH]n(-c2ccccc2)c(=O)c1CNC(=S)Nc1ccccc1 [1-[(3-methyl-5-oxo-1-phenyl-4,5-dihydro-1H-pyrazol-4-yl)methyl]-3-phenylthiourea (5d)] |

Reference: BindingDB's records for doi:10.1111/cbdd.12324 (Y.B. Chavan College of Pharmacy, 2014)
